Key:
E. Coli = assay: challenging the growth of E. Coli with measurement of optical density of media; assay type: cell-based; details: same optical density reduction; comparator 4-chlorophenyl-2-thienyliodonium bromide
Excerpt: In an experiment challenging the growth of E. Coli with measurement of optical density of media, the present iodonium composition, 3,5-dimethyl 4-chlorophenyl 2-thienyl iodonium bromide, suppressed the optical density of the E. Coli media at one tenth the concentration needed to accomplish the same optical density reduction utilizing 4-chlorophenyl-2-thienyliodonium bromide. Optical density of the media is a semi-quantitative measure of the presence of growing bacteria. Reduced density indicates the test compounds are retarding bacterial growth. Thus, 3,5-dimethyl 4-chlorophenyl 2-thienyl iodonium bromide, which is non-toxic to mammals, has greater antimicrobial activity than 4-chlorophenyl-2-thienyliodonium bromide.

[1] = tested on: several strains of Staphylococcus aurelius, including Methicillin-resistant Staphylococcus aureus isolates; assay: MIC50 on Staphylococcus strains including Methicillin-resistant Staphylococcus aureus isolates; assay type: cell-based; details: same bacteria strains, incl. MRSA isolates; comparator 4-chlorophenyl 2-thienyl iodonium chloride
human epithelial cells = assay: tests of toxicity on human epithelial cells; assay type: cell-based; details: approximate levels of 0.25 millimole concentrations; compared with controls
mice = details: cited from earlier work

| Structure (SMILES) | concentration needed to suppress optical density of E. Coli media, as fraction of that needed with 4-chlorophenyl-2-thienyliodonium bromide (E. Coli) | MIC50 as fraction of the MIC50 for 4-chlorophenyl 2-thienyl iodonium chloride [1] | toxicity on human epithelial cells (human epithelial cells) | oral median lethal dose (LD50) (mice) |
| --- | --- | --- | --- | --- |
| Cc1cc([I+]c2cccs2)cc(C)c1Cl.[Br-] [3,5-dimethyl 4-chlorophenyl 2-thienyl iodonium bromide] | one tenth | one fifth | lack of toxicity similar to that of controls |  |
| Clc1ccc([I+]c2cccs2)cc1.[Br-] [4-chlorophenyl-2-thienyliodonium bromide, reference compound] |  |  | lack of toxicity similar to that of controls |  |
| Clc1ccc([I+]c2cccs2)cc1.[Cl-] [4-chlorophenyl-2-thienyliodonium chloride] |  |  |  | greater than 4000 mg/kg |
